Results taken from ChEMBL document CHEMBL1156790, “Synthesis and structure-activity relationships of antitubercular 2-nitroimidazooxazines bearing heterocyclic side chains” (J Med Chem, 2010).
Converted amounts (≈) assume the structure as drawn.

Key:
[1] = test system: Mycobacterium tuberculosis; experiment: Antimycobacterial activity against Mycobacterium tuberculosis H37Rv after 16 to 24 hrs by microplate alamar blue assay; assay type: functional
[2] = test system: Mycobacterium tuberculosis; experiment: Antimycobacterial activity against Mycobacterium tuberculosis H37Rv expressing pFCA-luxAB after 10 days by luminescence-based low-oxygen recovery assay; assay type: functional; conditions: 240 h
Vero = experiment: Cytotoxicity against african green monkey Vero cells after 72 hrs by tetrazolium dye assay; assay type: cell-based; conditions: Chlorocebus sabaeus
[3] = Solubility in water at pH 7 at 20 degC; assay type: physicochemical

SMILES	MIC [1] [µM]	MIC [2] [µM]	IC50 (Vero) [µM]	solubility [3] [µg/mL]
O=[N+]([O-])c1cn2c(n1)OC[C@@H](OCc1nnc(-c3ccc(F)cc3)o1)C2	2.4 (≈ 0.867 µg/mL)	17 (≈ 6.14 µg/mL)	> 128	108 (≈ 299 µM)
O=[N+]([O-])c1cn2c(n1)OC[C@@H](OCc1cnn(-c3ccc(OC(F)(F)F)cc3)n1)C2	0.03 (≈ 0.0128 µg/mL)	1.6 (≈ 0.682 µg/mL)	> 128	–
O=[N+]([O-])c1cn2c(n1)OC[C@@H](OCc1cnn(-c3ccc(C(F)(F)F)cc3)c1)C2	0.54 (≈ 0.221 µg/mL)	2.3 (≈ 0.941 µg/mL)	> 128	4.9 (≈ 12 µM)
N#Cc1ccc(-n2cc(CO[C@@H]3COc4nc([N+](=O)[O-])cn4C3)nn2)cc1	0.89 (≈ 0.327 µg/mL)	11 (≈ 4.04 µg/mL)	> 128	–
O=[N+]([O-])c1cn2c(n1)OC[C@@H](OCc1cn(-c3ccc(F)cc3)nn1)C2	1.2 (≈ 0.432 µg/mL)	6.9 (≈ 2.49 µg/mL)	> 128	–
COc1ccc(-c2cc(CO[C@@H]3COc4nc([N+](=O)[O-])cn4C3)on2)cc1F	1.1 (≈ 0.429 µg/mL)	2 (≈ 0.781 µg/mL)	> 128	–
O=[N+]([O-])c1cn2c(n1)OC[C@@H](OCc1ccc(-c3ccc(F)cc3)s1)C2	0.05 (≈ 0.0188 µg/mL)	1.9 (≈ 0.713 µg/mL)	> 128	–
O=[N+]([O-])c1cn2c(n1)OC[C@@H](OCc1cnn(-c3ccc(F)cc3)n1)C2	0.17 (≈ 0.0613 µg/mL)	1.4 (≈ 0.504 µg/mL)	> 128	–
O=[N+]([O-])c1cn2c(n1)OC[C@@H](OCc1ccc(-c3cc(C(F)(F)F)ccn3)s1)C2	0.28 (≈ 0.119 µg/mL)	1.7 (≈ 0.725 µg/mL)	> 128	–
COc1ccc(-c2cc(CO[C@@H]3COc4nc([N+](=O)[O-])cn4C3)on2)cn1	2 (≈ 0.747 µg/mL)	4.1 (≈ 1.53 µg/mL)	> 128	–
O=[N+]([O-])c1cn2c(n1)OC[C@@H](OCc1csc(-c3ccc(OC(F)(F)F)cc3)n1)C2	1.2 (≈ 0.531 µg/mL)	1.5 (≈ 0.664 µg/mL)	> 128	–
Cn1c(CO[C@@H]2COc3nc([N+](=O)[O-])cn3C2)cnc1-c1ccc(C(F)(F)F)cc1	0.65 (≈ 0.275 µg/mL)	9.7 (≈ 4.11 µg/mL)	> 128	16 (≈ 37.8 µM)
O=[N+]([O-])c1cn2c(n1)OC[C@@H](OCc1ccc(-c3ccc(F)nc3)s1)C2	0.86 (≈ 0.324 µg/mL)	2.3 (≈ 0.866 µg/mL)	> 128	–
O=[N+]([O-])c1cn2c(n1)OC[C@@H](OCc1csc(-c3ccc(F)cc3)n1)C2	0.35 (≈ 0.132 µg/mL)	2.8 (≈ 1.05 µg/mL)	> 128	–
O=[N+]([O-])c1cn2c(n1)OC[C@@H](OCc1ccn(-c3ccc(F)cc3)n1)C2	0.11 (≈ 0.0395 µg/mL)	7.2 (≈ 2.59 µg/mL)	> 128	–
COc1ccc(-c2ccc(CO[C@@H]3COc4nc([N+](=O)[O-])cn4C3)s2)cc1F	0.06 (≈ 0.0243 µg/mL)	1 (≈ 0.405 µg/mL)	> 128	–
O=[N+]([O-])c1cn2c(n1)OC[C@@H](OCc1cc(-c3ccc(OC(F)(F)F)cc3)no1)C2	0.55 (≈ 0.234 µg/mL)	1.2 (≈ 0.512 µg/mL)	> 128	–
O=[N+]([O-])c1cn2c(n1)OC[C@@H](OCc1cn(-c3ccc(C(F)(F)F)cc3)nn1)C2	0.11 (≈ 0.0451 µg/mL)	3.4 (≈ 1.4 µg/mL)	> 128	4.6 (≈ 11.2 µM)
O=[N+]([O-])c1cn2c(n1)OC[C@@H](OCc1cc(-c3ccc(C(F)(F)F)cc3)no1)C2	0.17 (≈ 0.0698 µg/mL)	2.6 (≈ 1.07 µg/mL)	> 128	0.5 (≈ 1.22 µM)
N#Cc1ccc(-c2cc(CO[C@@H]3COc4nc([N+](=O)[O-])cn4C3)on2)cc1	1.4 (≈ 0.514 µg/mL)	6.2 (≈ 2.28 µg/mL)	> 128	–
COc1ccc(-n2cc(CO[C@@H]3COc4nc([N+](=O)[O-])cn4C3)nn2)cn1	1.6 (≈ 0.597 µg/mL)	12 (≈ 4.48 µg/mL)	> 128	–
O=[N+]([O-])c1cn2c(n1)OC[C@@H](OCc1cnn(-c3ccccc3)n1)C2	0.25 (≈ 0.0856 µg/mL)	2.2 (≈ 0.753 µg/mL)	> 128	–
Cn1nc(-c2ccc(C(F)(F)F)cc2)cc1CO[C@@H]1COc2nc([N+](=O)[O-])cn2C1	0.06 (≈ 0.0254 µg/mL)	4.1 (≈ 1.74 µg/mL)	> 128	–
Cn1nc(-c2ccc(F)cc2)cc1CO[C@@H]1COc2nc([N+](=O)[O-])cn2C1	0.36 (≈ 0.134 µg/mL)	4 (≈ 1.49 µg/mL)	> 128	–

SMILES	MIC [1] [µM]	MIC [2] [µM]	IC50 (Vero) [µM]	solubility [3] [µg/mL]
O=[N+]([O-])c1cn2c(n1)OC[C@@H](OCc1ccc(-c3cncc(F)c3)s1)C2	0.87 (≈ 0.327 µg/mL)	2.3 (≈ 0.866 µg/mL)	> 128	–
Cn1c(CO[C@@H]2COc3nc([N+](=O)[O-])cn3C2)cnc1-c1ccc(C#N)cc1	2.8 (≈ 1.07 µg/mL)	> 32	> 128	–
O=[N+]([O-])c1cn2c(n1)OC[C@@H](OCc1cnn(-c3ccc(F)cc3)c1)C2	0.8 (≈ 0.287 µg/mL)	3.9 (≈ 1.4 µg/mL)	> 128	–
O=[N+]([O-])c1cn2c(n1)OC[C@@H](OCc1ccc(-c3ccc(OC(F)F)cc3)s1)C2	0.86 (≈ 0.364 µg/mL)	0.58 (≈ 0.246 µg/mL)	> 128	–
O=[N+]([O-])c1cn2c(n1)OC[C@@H](OCc1ccc(-c3ccc(C(F)(F)F)cc3)s1)C2	0.16 (≈ 0.0681 µg/mL)	1 (≈ 0.425 µg/mL)	> 128	0.7 (≈ 1.65 µM)
O=[N+]([O-])c1cn2c(n1)OC[C@@H](OCc1ccn(-c3ccc(C(F)(F)F)cc3)n1)C2	0.045 (≈ 0.0184 µg/mL)	1 (≈ 0.409 µg/mL)	> 128	5.4 (≈ 13.2 µM)
O=[N+]([O-])c1cn2c(n1)OC[C@@H](OCc1nnn(-c3ccc(F)cc3)n1)C2	0.29 (≈ 0.105 µg/mL)	3.4 (≈ 1.23 µg/mL)	> 128	–
N#Cc1ccc(-c2cccc(CO[C@@H]3COc4nc([N+](=O)[O-])cn4C3)c2)cc1	–	4.8 (≈ 1.81 µg/mL)	> 128	–
COc1ccc(-c2nc(CO[C@@H]3COc4nc([N+](=O)[O-])cn4C3)cs2)cc1F	0.2 (≈ 0.0813 µg/mL)	1.7 (≈ 0.691 µg/mL)	> 128	–
COc1ccc(-c2ncc(CO[C@@H]3COc4nc([N+](=O)[O-])cn4C3)n2C)cc1F	1.4 (≈ 0.565 µg/mL)	> 32	> 128	–
O=[N+]([O-])c1cn2c(n1)OC[C@@H](OCc1cccc(-c3ccc(F)cc3)c1)C2	–	3.8 (≈ 1.4 µg/mL)	> 128	1.8 (≈ 4.87 µM)
O=[N+]([O-])c1cn2c(n1)OC[C@@H](OCc1nnn(-c3ccccc3)n1)C2	1.2 (≈ 0.412 µg/mL)	5.7 (≈ 1.96 µg/mL)	> 128	–
O=[N+]([O-])c1cn2c(n1)OC[C@@H](OCc1cccc(-c3ccc(OC(F)(F)F)cc3)c1)C2	–	2.2 (≈ 0.958 µg/mL)	> 128	–
N#Cc1ccc(-c2nc(CO[C@@H]3COc4nc([N+](=O)[O-])cn4C3)cs2)cc1	0.67 (≈ 0.257 µg/mL)	3.2 (≈ 1.23 µg/mL)	> 128	–
COc1ccc(-c2cccc(CO[C@@H]3COc4nc([N+](=O)[O-])cn4C3)c2)cc1F	–	2.2 (≈ 0.879 µg/mL)	> 128	–
O=[N+]([O-])c1cn2c(n1)OC[C@@H](OCc1ccc(-c3ccc(OC(F)(F)F)cc3)s1)C2	0.85 (≈ 0.375 µg/mL)	2.6 (≈ 1.15 µg/mL)	> 128	–
COc1ccc(-c2ccc(CO[C@@H]3COc4nc([N+](=O)[O-])cn4C3)s2)cn1	0.22 (≈ 0.0854 µg/mL)	4.5 (≈ 1.75 µg/mL)	> 128	2.2 (≈ 5.66 µM)
COc1ccc(-c2nc(CO[C@@H]3COc4nc([N+](=O)[O-])cn4C3)cs2)cn1	1.4 (≈ 0.545 µg/mL)	4.5 (≈ 1.75 µg/mL)	> 128	–
O=[N+]([O-])c1cn2c(n1)OC[C@@H](OCc1csc(-c3ccc(C(F)(F)F)cc3)n1)C2	1.4 (≈ 0.597 µg/mL)	3 (≈ 1.28 µg/mL)	> 128	2.8 (≈ 6.57 µM)
COc1ccc(-n2cc(CO[C@@H]3COc4nc([N+](=O)[O-])cn4C3)nn2)cc1F	0.86 (≈ 0.336 µg/mL)	8.7 (≈ 3.4 µg/mL)	> 128	–
O=[N+]([O-])c1cn2c(n1)OC[C@@H](OCc1cc(-c3ccc(F)cc3)no1)C2	1.5 (≈ 0.54 µg/mL)	1.9 (≈ 0.685 µg/mL)	> 128	–
Cn1c(CO[C@@H]2COc3nc([N+](=O)[O-])cn3C2)cnc1-c1ccc(F)cc1	1.9 (≈ 0.709 µg/mL)	31 (≈ 11.6 µg/mL)	> 128	–
Cn1c(CO[C@@H]2COc3nc([N+](=O)[O-])cn3C2)cnc1-c1ccc(OC(F)(F)F)cc1	1.1 (≈ 0.483 µg/mL)	7.4 (≈ 3.25 µg/mL)	> 128	–
O=[N+]([O-])c1cn2c(n1)OC[C@@H](OCc1cccc(-c3ccc(C(F)(F)F)cc3)c1)C2	–	2.9 (≈ 1.22 µg/mL)	> 128	2.8 (≈ 6.68 µM)
